System: NCI-H929 complex spheroids, viability % test/control
Assay: Anticancer human tumor NCI-H929 cell line growth inhibition [RAS];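 also: compound exposure lasted seven days before viability was read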;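 as to viability, T/C: 100% = DMSO vehicle control viability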
Conditions: for IC50: curve of first compound; for viability, T/C: stronger effect = lower value; active = viability on the fitted dose curve at most 10% of control; inactive = the rest
Procedure, shortened: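 Agents were tested in combination matrices in half-log decrements from a top concentration at or near clinical Cmax (10 microM if undetermined). Targets were multi-cell spheroids of tumour lines plus HUVEC and MSC stromal cells.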

[1] = second compound 0.00316 µM, first compound 0.0316 µM
[2] = second compound 0.00316 µM, first compound 0.1 µM
[3] = second compound 0.00316 µM, first compound 0.316 µM
[4] = second compound 0.00316 µM, first compound 1 µM
[5] = second compound 0.00316 µM, first compound 3.16 µM
[6] = second compound 0.00316 µM, first compound 10 µM
[7] = second compound 0.01 µM, first compound 0.0316 µM
[8] = second compound 0.01 µM, first compound 0.1 µM
[9] = second compound 0.01 µM, first compound 0.316 µM
[10] = second compound 0.01 µM, first compound 1 µM
[11] = second compound 0.01 µM, first compound 3.16 µM
[12] = second compound 0.01 µM, first compound 10 µM
[13] = second compound 0.0316 µM, first compound 0.0316 µM
[14] = second compound 0.0316 µM, first compound 0.1 µM
[15] = second compound 0.0316 µM, first compound 0.316 µM
[16] = second compound 0.0316 µM, first compound 1 µM
[17] = second compound 0.0316 µM, first compound 3.16 µM
[18] = second compound 0.0316 µM, first compound 10 µM
[19] = second compound 0.1 µM, first compound 0.0316 µM
[20] = second compound 0.1 µM, first compound 0.1 µM
[21] = second compound 0.1 µM, first compound 0.316 µM
[22] = second compound 0.1 µM, first compound 1 µM
[23] = second compound 0.1 µM, first compound 3.16 µM
[24] = second compound 0.1 µM, first compound 10 µM
[25] = second compound 0.316 µM, first compound 0.0316 µM
[26] = second compound 0.316 µM, first compound 0.1 µM
[27] = second compound 0.316 µM, first compound 0.316 µM
[28] = second compound 0.316 µM, first compound 1 µM
[29] = second compound 0.316 µM, first compound 3.16 µM
[30] = second compound 0.316 µM, first compound 10 µM
[31] = second compound 1 µM, first compound 0.0316 µM
[32] = second compound 1 µM, first compound 0.1 µM
[33] = second compound 1 µM, first compound 0.316 µM
[34] = second compound 1 µM, first compound 1 µM
[35] = second compound 1 µM, first compound 3.16 µM
[36] = second compound 1 µM, first compound 10 µM

Cc1nc(N2CCC3(CC2)COC(C)C3N)c(CO)nc1Sc1ccnc(N)c1Cl (stereo unspecified) + C=CC(=O)N1CCN(c2nc(OCC3CCCN3C)nc3c(F)c(-c4nc(N)cc(C)c4C(F)(F)F)c(Cl)cc23)C(C)C1
inactive: viability, T/C [1] 97.9% | viability, T/C [2] 94.5% | viability, T/C [3] 97.1% | viability, T/C [4] 94.4% | viability, T/C [5] 101% | viability, T/C [6] 98.3% | viability, T/C [7] 95.8% | viability, T/C [8] 96% | viability, T/C [9] 99.8% | viability, T/C [10] 96.5% | viability, T/C [11] 101% | viability, T/C [12] 102% | viability, T/C [13] 95.7% | viability, T/C [14] 102% | viability, T/C [15] 100% | viability, T/C [16] 99.3% | viability, T/C [17] 102% | viability, T/C [18] 102% | viability, T/C [19] 95.6% | viability, T/C [20] 101% | viability, T/C [21] 100% | viability, T/C [22] 102% | viability, T/C [23] 104% | viability, T/C [24] 99.7% | viability, T/C [25] 101% | viability, T/C [26] 101% | viability, T/C [27] 103% | viability, T/C [28] 100% | viability, T/C [29] 102% | viability, T/C [30] 104% | viability, T/C [31] 104% | viability, T/C [32] 105% | viability, T/C [33] 105% | viability, T/C [34] 105% | viability, T/C [35] 109% | viability, T/C [36] 103%
> 10 µM: IC50 (second compound 0.00316 µM) | IC50 (second compound 0.01 µM) | IC50 (second compound 0.0316 µM) | IC50 (second compound 0.1 µM) | IC50 (second compound 0.316 µM) | IC50 (second compound 1 µM)

NC1c2ccccc2OC12CCN(c1cnc3c(N4CCCc5ncccc54)n[nH]c3n1)CC2 (stereo unspecified) + C=CC(=O)N1CCN(c2nc(OCC3CCCN3C)nc3c(F)c(-c4nc(N)cc(C)c4C(F)(F)F)c(Cl)cc23)C(C)C1
inactive: viability, T/C [1] 98.8% | viability, T/C [2] 94.8% | viability, T/C [3] 99.3% | viability, T/C [4] 98.9% | viability, T/C [5] 101% | viability, T/C [6] 66.2% | viability, T/C [7] 96.2% | viability, T/C [8] 90.6% | viability, T/C [9] 96% | viability, T/C [10] 103% | viability, T/C [11] 99% | viability, T/C [12] 66.8% | viability, T/C [13] 96.9% | viability, T/C [14] 99.7% | viability, T/C [15] 101% | viability, T/C [16] 99.8% | viability, T/C [17] 96.6% | viability, T/C [18] 63.5% | viability, T/C [19] 92.4% | viability, T/C [20] 99% | viability, T/C [21] 102% | viability, T/C [22] 97.4% | viability, T/C [23] 97.5% | viability, T/C [24] 69.3% | viability, T/C [25] 101% | viability, T/C [26] 103% | viability, T/C [27] 105% | viability, T/C [28] 103% | viability, T/C [29] 102% | viability, T/C [30] 71.7% | viability, T/C [31] 104% | viability, T/C [32] 107% | viability, T/C [33] 103% | viability, T/C [34] 102% | viability, T/C [35] 105% | viability, T/C [36] 68.9%
> 10 µM: IC50 (second compound 0.00316 µM) | IC50 (second compound 0.01 µM) | IC50 (second compound 0.0316 µM) | IC50 (second compound 0.1 µM) | IC50 (second compound 0.316 µM) | IC50 (second compound 1 µM)

Nc1ccn(C2OC(CO)C(O)C2(F)F)c(=O)n1 (stereo unspecified) + C=CC(=O)N1CCN(c2nc(OCC3CCCN3C)nc3c(F)c(-c4nc(N)cc(C)c4C(F)(F)F)c(Cl)cc23)C(C)C1
0.0189 µM: IC50 (second compound 1 µM)
inactive: viability, T/C (second compound 0.00316 µM, first compound 0.00316 µM) 102% | viability, T/C (second compound 0.00316 µM, first compound 0.01 µM) 106% | viability, T/C (second compound 0.01 µM, first compound 0.00316 µM) 97.8% | viability, T/C (second compound 0.01 µM, first compound 0.01 µM) 111% | viability, T/C (second compound 0.0316 µM, first compound 0.00316 µM) 94.8% | viability, T/C (second compound 0.0316 µM, first compound 0.01 µM) 114% | viability, T/C (second compound 0.1 µM, first compound 0.00316 µM) 99.3% | viability, T/C (second compound 0.1 µM, first compound 0.01 µM) 97.3% | viability, T/C (second compound 0.316 µM, first compound 0.00316 µM) 101% | viability, T/C (second compound 0.316 µM, first compound 0.01 µM) 114% | viability, T/C (second compound 1 µM, first compound 0.00316 µM) 103% | viability, T/C (second compound 1 µM, first compound 0.01 µM) 118%
0.0186 µM: IC50 (second compound 0.316 µM)
0.0177 µM: IC50 (second compound 0.1 µM)
active: viability, T/C [1] 1.52% | viability, T/C [2] 2.24% | viability, T/C [3] 1.73% | viability, T/C [4] 0.82% | viability, T/C [7] 1.3% | viability, T/C [8] 2.1% | viability, T/C [9] 1.62% | viability, T/C [10] 0.86% | viability, T/C [13] 1.48% | viability, T/C [14] 1.95% | viability, T/C [15] 1.12% | viability, T/C [16] 0.76% | viability, T/C [19] 1.86% | viability, T/C [20] 2.03% | viability, T/C [21] 1.73% | viability, T/C [22] 1% | viability, T/C [25] 1.08% | viability, T/C [26] 1.62% | viability, T/C [27] 1.46% | viability, T/C [28] 0.81% | viability, T/C [31] 1.88% | viability, T/C [32] 2.07% | viability, T/C [33] 0.99% | viability, T/C [34] 0.9%
0.0184 µM: IC50 (second compound 0.00316 µM) | IC50 (second compound 0.01 µM) | IC50 (second compound 0.0316 µM)
